Measurements reported in publication PMC8224775, “Five Tetramic Acid Derivatives Isolated from the Iranian Fungus Colpoma quercinum CCTU A372” (Biomolecules, 2021).
Values after ≈ are worked out from the molar mass of the structure shown. Like-named read-outs stand apart in the source and are kept apart here.

What was measured:
Assay in all cases: Antimicrobial serial dilution assay (MIC)
Type in all cases: cell-based
[1] = system: Acinetobacter baumanii DSM 30008; conditions: serial dilution 67 to 0.5 µg/mL, overnight
Experimental: (§1) Antimicrobial activity was determined by our established protocol, according to Becker et al.. In general, all of the pure compounds were dissolved in MeOH with a concentration of 1 mg/mL. Assessment of the antimicrobial activity was determined using the serial dilution assay method to calculate the minimum inhibitory concentration (MIC). In this method, the compounds were diluted in a range between 67 and 0.5 µg/mL in 96 well-plate and incubated with the test organism overnight. The next day, growth of the test organisms was visually observed, and MIC was determined in the lowest concentration where a clear zone (no growth of test organism) was observed. In our attempt for novel anti-infective compounds, an established standard protocol using various organisms representing a broad spectrum of pathogens of clinical interest, as well as sensitive indicator strains, was used (bacteria: Bacillus subtilis DSM 10, Staphylococcus aureus DSM 346, Acinetobacter baumanii DSM 30008, Chromobacterium violaceum DSM 30191, Escherichia coli DSM 1116 and Pseudomonas aeruginosa PA14; mycobacteria: Mycobacterium smegmatis ATCC 700084 and fungi: Candida albicans DSM 1665, Schizosaccharomyces pombe DSM 70572, Mucor hiemalis DSM 2656, Wickerhamomyces anomala DSM 6766 and Rhodotorula glutinis DSM 10134). Methanol as a solvent to dissolve the pure compounds was used as the negative control. Oxytetracycline, ciprofloxacin, gentamycin, and kanamycin were used as positive controls against bacteria, whereas nystatin was used against fungi. A detailed experimental procedure can be found in the SI.
(§2) Protocol: Antimicrobial Activity Assay
(§3) The assay was conducted as a minimum inhibitory concentration (MIC) assay in 96-well round- bottom microtiter plates using the parameters summarized in Table S1 and as already described in [S1]. Stocks of the test organisms were generated by growing the organisms overnight in 50 mL shaking flasks filled with 25 mL of the growth medium at 140r p m ( media and temperatures see Table S1). If the organisms were well grown the next day, which was checked by the occurrence of an optical density (OD) […] of the suspension (OD600 nm for bacteria, OD548 nm for fungi and M. smegmatis), aliquots of these were stored in 1.5 mL reaction tubes in a freezer at −80 °C for up to 12 months. Upon use, aliquots were unthawed and the OD of the suspension measured and adjusted by diluting with the respective growth medium. OD600 nm was adjusted to 0.01 and OD548 nm to 0.1. Subsequently, 150 μ L of the adj usted suspensions were added to all wells of a 96-well microtiter plate (one test organism per plate). In row A, additional 130 μ L of suspensions plus 20 μ L of the test compounds (1 mg/mL) and the controls (one compound/column) were added. MeOH was used as negative controls, while different positive controls (references) were used for the test organisms (see Table S1). Then, starting from row A, 150 μ L of t he suspension were transferred to the next row, the contents thoroughly mixed, and 150 μ L transferred to the following row. The remaining 150 μ L after row H were discarded. […]
(§4) of the test compounds, ranging from 66.7 μg/mL in row A to 0.52 μ g/mL in row H. The microtiter plates were then incubated overnight on a microplate shaker at 800 rpm at 30 or 37 °C (see Table S1) and were visually evaluated the next day. The MIC is defined as the lowest concentration where no growth of the test organism (clear zone) was observed. A lower MIC thus corresponds to a higher antimicrobial activity of the test compound.
(§5) Table S1: MIC assay experiment parameters test organism strain No growth incubation positive control […]
(§6) Candidaa lbicans DSM1665 MYC3 30 nystatin 1.0mg/ mL
(§7) Schizosaccharomyces DSM70572 MYC3 30 nystatin 1.0mg/ mL
(§8) Mucor hiemalis DSM2656 MYC3 30 nystatin 1.0mg/ mL
(§9) Wickerhamomyces DSM6766 MYC3 30 nystatin 1.0mg/ mL
(§10) Rhodotorula glutinis DSM10134 MYC3 30 nystatin 1.0mg/ mL
(§11) 1 MHB: Müller-Hinton Broth (SN X927.1, CarlRoth GmbH, Karlsruhe, Germany) […]

Mucor hiemalis DSM 2656 = conditions: overnight
Experimental: as §1, §2, §3, §4, §5, §6, §7, §8, §9, §10, §11

Pichia anomala DSM 6766 = conditions: serial dilution 67 to 0.5 µg/mL, overnight
Experimental: as §1, §2, §3, §4, §5, §6, §7, §8, §9, §10, §11

[2] = system: Rhodotorula glutinis DSM 10134; conditions: serial dilution 67 to 0.5 µg/mL, overnight
Experimental: as §1, §2, §3, §4, §5, §6, §7, §8, §9, §10, §11

Escherichia coli = conditions: serial dilution 67 to 0.5 µg/mL, overnight
Experimental: as §1, §2, §3, §4, §5
Escherichia coli DSM1116 MHB1 37 oxytetracyclin 1.0mg/ mL […]
as §6, §7, §8, §9
Rhodotorula glutinis DSM10134 MYC3 30 nystatin 1.0mg/ mL […]

[3] = serial dilution 67 to 0.5 µg/mL

SMILES	MIC [1]	MIC (Mucor hiemalis DSM 2656; [3])	MIC (Pichia anomala DSM 6766)	MIC [2]	MIC (Escherichia coli)	MIC (Mucor hiemalis DSM 2656; DSM2656, serial dilution 67 to 0.5 µg/mL, read-out: MIC)
CCC(C(=O)O)C1C(C)=CC2CC(C)CCC2C1(C)C(O)=C1C(=O)C(C)N(C)C1=O (stereo not shown) [compound 2, Colposetin B]	n.i		n.i	n.i	n.i	67 µg/mL (≈ 160 µM)
CC1=CC2CC(C)CCC2C2(C)C(=O)OC(C(=O)O)C(C)C12 (stereo not shown) [compound 3, Colposetin C]	n.i	n.i	n.i	n.i	n.i	
CC(C=CCC(C)CCC=C(C)C(=O)C1=C(O)C(C)N(C)C1=O)=CC(C)C(O)C(=O)O (stereo not shown) [compound 4, Colpomenoic acid A]	n.i	n.i	n.i	n.i	n.i	

The remaining lines, values ahead:

MIC [1]	MIC (Mucor hiemalis DSM 2656; [3])	MIC (Pichia anomala DSM 6766)	MIC [2]	MIC (Escherichia coli)	MIC (Mucor hiemalis DSM 2656; DSM2656, serial dilution 67 to 0.5 µg/mL, read-out: MIC)	SMILES
n.i	n.i	n.i	n.i	n.i		CC(=O)OC(C(=O)O)C(C)C1C(C)=CC2CC(C)CCC2C1(C)C(O)=C1C(=O)C(C)N(C)C1=O (stereo not shown) [compound 1, Colposetin A]
n.i	n.i	n.i	n.i	n.i		CC(C=CCC(C)C=CC=C(C)C(=O)C1=C(O)C(C)N(C)C1=O)=CC(C)C(O)C(=O)O (stereo not shown) [compound 5, Colpomenoic acid B]
